The source of these data is article PMC9563435, “Comparison of Different Clinical Chemotherapeutical Agents’ Toxicity and Cell Response on Mesenchymal Stem Cells and Cancer Cells” (Cells, 2022).

What all share (type): cell-based, human
Assay [1] concerns A431-mCh cells. Nature of the assay: γ-H2AX staining of DNA double-stranded breaks, A431-mCh. How it is done: (§1) Ad-MSC-GFP 3 cells were seeded into glass-bottomed chamber slides (ibidi, Germany, Grafelfing, Germany) at 1 × 10^4/well and A431-mCh at 1.6 × 10^4/well density. […] Cells in all chambers were fixed with 4% PFA for 15 min and washed twice with PBS. Blocking solution (0.5% BSA-PBS, 0.1% TritonX-100, 5% goat serum, and 1% fish gelatin) was used for 1 h. γ-H2A.X primary antibody (MA1-2022, Invitrogen, United States) was diluted in blocking solution at 1:500 concentration and incubated overnight at 4 °C. Afterwards, the cells were washed with PBS twice and goat anti-mouse A633 secondary antibody (A21052, abcam, Cambridge, UK) was diluted at 1:250 concentration in blocking solution. Nuclei was stained with a Hoechst-33342 (23491-52-3, Dojindo, Kumamoto, Japan) at 1:1000 concentration.
(§2) To quantify DNA damage based on immunofluorescence against γ-H2AX, a semi-automated image analysis pipeline was set up using CellProfiler v4.1.3 [10]. First, images showing DAPI-stained nuclei were pre-processed by intensity normalization and Gaussian filtering (ϭ = 20 px) to suppress noise and remove artifacts caused by debris. Nuclei candidates were identified by threshold-based segmentation; false candidates were removed from the analysis manually. Using the remaining nuclei regions as masks, pixel intensities were measured on the γ-H2AX channel, thus, excluding non-nuclei signals.

Assay [2] deals with Ad-MSC 3 cells. Nature of the assay: ROS induction (DCFH-DA), Ad-MSC 3. The conditions noted are these: 1 h, different concentrations incl. higher. As for the experimental part: (§3) Ad-MSC 3 and A431 cells were seeded in a 96-well tissue culture plate and incubated for 24 h as described above. Cells were washed twice with HBSS and incubated in 100 µL of DCFH-DA dye (R252-10, Dojindo) according to the manufacturer’s instructions. Cells were incubated for 30 min at 37 °C and washed twice with HBSS. […] Supernatant was removed, and the cells were washed with HBSS before imaging with the JuLI^TM Stage Cell History Recorder (NanoEnTek).

Assay [3] deals with Ad-MSC 3 cells. Kind of assay: Apoptosis assay (Annexin V / TO-PRO-3 flow cytometry), Ad-MSC 3. As for the experimental part: Apoptosis detection was based on the Annexin-V molecule binding to phosphatidylserine membrane molecules. Two cell lines were used to study apoptosis: Ad-MSC 3 cells were plated in a 5 × 10^4 cells/well concentration, while 4 × 10^4/well A431-mCh were seeded into each well in a 12-well tissue culture plate. […] At day 5, cells were trypsinized and centrifuged, while the supernatant was also collected and combined with the detached cells to include all already dead cells. Cells were washed twice with 500 µL of 1% BSA-PBS (bovine serum albumin dissolved in PBS, A8022, Sigma-Aldrich, St. Louis, MO, USA) solution and centrifuged at 400× G for 4 min. Cells were resuspended in 100 µL of 1× Annexin Binding Buffer (422201, Biolegend, San Diego, CA, USA), and 3 µL of Annexin V-Pacific Blue (A35122, Biolegend, San Diego, CA, USA) and 1 µL of TO-PRO-3 (R37170, Invitrogen, Waltham, MA, USA) were added to each sample. After 15 min of incubation, labeled and non-labeled samples were diluted 5-fold with 1× Annexin Binding Buffer and analyzed by Attune™ NxT flow cytometer.

A further assay has as its system A431 cells. Nature of the assay: ROS induction (DCFH-DA), A431. Conditions: 1 h, different concentrations incl. higher. How it is done: as §3
Assay [4] has as its system Ad-MSC-GFP 3 cells. Kind of assay: Cytotoxicity / cell viability assay (PrestoBlue) on Ad-MSC-GFP 3. Conditions: Ad-MSC-GFP 3 / Ad-MSC 3, 5 days. As for the experimental part:
(§4) Cells were seeded in a 96-well tissue culture plate in 100 µL of medium. Ad-MSC-GFP 1, iAd-MSC-GFP 1, Ad-MSC-GFP 2, Ad-MSC-GFP 3, BM-MSC, and HFF were seeded at 5 × 10^3/100 µL/well density and A431-mCh, MES-SA-mCh, and MCF-7-GFP at 4 × 10^3 cells/100 µL/well concentration in DMEM-F12 media. Different initial cell numbers were used due to different proliferation rates of different cell types. Cells were allowed to attach overnight at 37 °C and the day after were treated with the drugs using the indicated concentrations in 100 µL. Cell viability was measured by using PrestoBlue™ Cell Viability Reagent (A13232, Invitrogen, Waltham, MA, USA). To address metabolic differences between cancer cells and MSCs, the assay was optimized for each cell line, cells were incubated with 5 or 12.5% PrestoBlue™ Cell Viability Reagent diluted in PBS at 37 °C/5% CO2 for 1–1.5 h 5 days after the treatment. The fluorescence signal was measured by an EnSpire (Perkin Elmer, Waltham, MA, USA) fluorometer at 555 nm (excitation)/585 nm (emission) wavelength.
(§5) After the incubation period, the relative fluorescence data was measured. The data was normalized with the fluorescence of blank samples (cell culture media). […] In these cases, IC50 was calculated from the line connecting the measurement points. For repeated measurements, average and standard deviation was calculated based on the logarithm of the IC50 values.

Assay [5] deals with Ad-MSC 3 cells. Nature of the assay: Senescence β-galactosidase staining, Ad-MSC 3. The conditions noted are these: 4 µM; 5 days treatment then 7 days drug-free. How it is done: At day 5, media was removed and replaced with 200 µL of completed DMEM-F12 for 7 days. The Senescence β-Galactosidase Staining Kit (9860S, Cell Signaling Technology, Danvers, MA, USA) was used to detect senescent cells. Cells were fixed with fixing solution, washed with PBS, stained with X-gal solution overnight at 37 °C without CO2, and coated with 70% glycerol.

Assay [6] deals with 6 MSCs and 3 cancer cell lines. Nature of the assay: Cytotoxicity / cell viability assay (PrestoBlue), panel of MSCs and cancer cell lines. The conditions noted are these: 5 days treatment, IC50 comparison. As for the experimental part:
as §4
as §5, with “media). A sigmoidal dose–response curve was fitted to the normalized measurement data and the logarithm of the concentration using the least square method. An inhibitory concentration of 50% (IC50 and log10) was interpolated from the fitted graph.” for “media).”
To compare the mean IC50 values of six mesenchymal stem cell lines (Group-1) and three cancer cell lines (Group-2), first an F-test was performed to check equal variances between the groups, then two-sample unpaired t-tests were performed to calculate significance using Microsoft® Excel® 2016 (16.0.4266.1001).

For assay [7], the system named is Ad-MSC-GFP 3 cells. Nature of the assay: Live cell imaging, confluency, Ad-MSC-GFP 3. The conditions noted are these: 120 h live cell imaging. How it is done: (§6) JuLI™ Stage Cell History Recorder was used to monitor a five-day cytotoxicity assay on Ad-MSC-GFP 3 and A431-mCh cell lines. […] Images were taken every 105 min for 120 h at 10× objective magnification. Live cell microscopy studies were evaluated using the “Growth curve” function of the JuLI STAT image analysis software (v2.0.1.0).

For assay [8], the system named is A431-mCh cells. Kind of assay: Live cell imaging, confluency, A431-mCh. Conditions: 120 h. How it is done: as §6
Assay [9] concerns Ad-MSC-GFP 3 cells. Nature of the assay: γ-H2AX staining of DNA double-stranded breaks, Ad-MSC-GFP 3. How it is done:
as §1, §2

[10] abbreviates: 120 h, IC50 concentrations of A431 (2 µM cisplatin, 0.1 µM doxorubicin, 30 µM nutlin-3).

As to `N.N.[Cl][Pt][Cl]` [cisplatin], the “effect on A431 cells in γ-H2AX experiment” value in the assay with A431-mCh cells [1] (10 µM, 5 days) is given as “almost completely eradicating A431 cells”. Besides, in the assay with A431-mCh cells [1] (setting [10]), the “DNA damage (γ-H2AX)” value is given as “massive DNA damage”. Further, the ROS induction result in the assay on Ad-MSC 3 cells [2] and in the assay with A431 cells was “did not induce ROS” each time. The “apoptosis (in words)” value with Ad-MSC 3 cells [3] (10 µM (IC50 level of Ad-MSC-GFP 3)) was “notable amounts of late apoptosic cells”. Further, the “apoptosis compared to untreated controls (in words)” value with Ad-MSC 3 cells [3] (120 h) is given as “virtually no apoptosis”. In addition, the IC50 with Ad-MSC-GFP 3 cells [4] was determined as 10 µM. In addition, in the assay with Ad-MSC 3 cells [5], the “SA-β-Gal staining (senescence)” value is given as “slightly increased SA-ß-Gal staining”. The “drug sensitivity of MSCs compared with cancer cells (in words)” value in [6] was “required significantly higher concentrations to kill MSCs than cancer cells”. Further, in the assay on Ad-MSC-GFP 3 cells [7], the “concentration at which significant drops in confluency were seen, as multiple of Ad-MSC-GFP 3 IC50” value amounted to 2 fold. The “number of viable colonies in live cell imaging” value with A431-mCh cells [8] (IC50 of A431-mCh and 10-fold higher concentration) is given as “significantly reduced the number of viable colonies”. The “growth kinetics in live cell imaging” value in the assay with A431-mCh cells [8] (concentration 10-fold lower than A431-mCh IC50) was “did not alter growth kinetics”. Also, the “number of double-stranded breaks (γ-H2AX)” value in the assay on Ad-MSC-GFP 3 cells [9] (10 µM, 5 days) is “significantly increased the number of double-stranded breaks”. Besides, in the assay with Ad-MSC-GFP 3 cells [9] (setting [10]), the “DNA double-stranded breaks (γ-H2AX)” value is on record as “no DNA break was detected”.
